{"source": "paper PMC7468108", "about": "(Communications Biology, 2020)", "key": {"[1]": {"system": "SH-SY5Y cells exposed to pre-formed Aβ42 fibrils", "assay": "XTT assay, reduction of Aβ42-induced cytotoxicity in SH-SY5Y", "assay_type": "cell-based, human", "set-up": "%Viability: dose or concentration left out as unconfirmed", "description": "The peptide assemblies were then incubated for further 24 h with SH-SY5Y or HEK-293 cells and cell viability was monitored by XTT assay (Fig. 9). […] The mixtures were then independently applied to the respective cells for 24 h, and cell viability was further measured by XTT assay (Fig. 10a).\n(§1) The SH-SY5Y and HEK-293 cell lines (2 × 10^5 cells/mL) were cultured in 96-well tissue microplates (100 µL/well) and allowed to adhere overnight at 37 °C. The conjugate molecules were dissolved in DMEM:nutrient mixture F12 (Ham’s) (1:1) (Biological Industries, Israel) at different concentrations. The negative control was prepared as medium without hybrid molecules and treated in the same manner. 100 µL of medium with or without hybrid molecules were added to each well in triplicate. Following incubation for 24 h at 37 °C, cell viability was evaluated using the 2,3-bis(2-methoxy-4-nitro-5-sulfophenyl)-2H-tetrazolium-5-carboxanilide (XTT) cell proliferation assay kit (Biological Industries, Israel) according to the manufacturer’s instructions. Briefly, 100 µL of activation reagent was added to 5 mL of XTT reagent, followed by the addition of 50 µL of activated-XTT solution to each well. After 2 h incubation at 37 °C, color intensity was measured using an ELISA microplate reader at 450 nm and 630 nm. Results are presented as mean and mean standard error. Each experiment was repeated minimum three times.\nFor the quantitative data derived from ThT and XTT assays, statistical significance, expressed as p-value, was determined using Student’s t-test calculation applied at the end of the experiments, setting tails to 2 (tailed distribution) and type to 2 (samples equal variance), according to reported methods. From the XTT viability assays, EC50 and Emax values were determined from the dose-response curves of each tested molecule using non-linear least-square data fitting, according to literature."}, "[2]": {"assay": "XTT assay, cytotoxicity of the hybrid molecules towards HEK-293", "assay_type": "cell-based", "settings": "human, HEK-293 cells", "description": "To this end, we first tested whether the hybrid molecules carried any cytotoxicity themselves. […] No considerable toxicity (≥95% viability) was caused by the hybrid molecules towards either cell line, even at the highest concentration of 250 µM (Fig. 8).\nas §1"}, "[3]": {"biological_target": "T1, pre-formed fibrils of hIAPP (Homo sapiens, UniProt P10997)", "T1 construct": "hIAPP is a 37-amino acid neuroendocrine peptide hormone; purchased Peptide 2.0 (USA)", "T1 sequence (P10997 34-70 limits assumed)": "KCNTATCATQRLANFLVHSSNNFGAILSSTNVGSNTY", "assay": "ThT-binding assay, disaggregation of pre-formed hIAPP fibrils", "assay_type": "biochemical", "settings": "for % amyloid of hIAPP in absence or presence of inhibitors: hIAPP 10 µM; for Normalized ThT fluorescence kinetics: hIAPP (10 µM) : molecule 1:5", "description": "For efficient treatment of proteinopathies it may be advantageous to disassemble amyloid aggregates/fibrils which are usually already present at the time of diagnosis[75]–[77]. […] Then, various doses of the hybrid molecules were added to the pre-formed fibrils and the mixtures were incubated for additional 10 h. The process of disaggregation was monitored by ThT-binding assay, CD spectroscopy, TEM and Congo red staining (Fig. 5).\nThe experiment was performed according to the previous report. […] Kinetics fluorescence data were collected at 37 °C in triplicate using Infinite M200 microplate reader (Tecan, Switzerland), with measurements acquired at 15 min intervals. Excitation and emission wavelengths were set at 440 nm and 485 nm, respectively."}, "[4]": {"biological_target": "T2, pre-formed fibrils of Aβ42 (Homo sapiens, UniProt P05067)", "T2 construct": "purchased rPeptide (USA)", "T2 sequence (P05067 672-713 limits assumed)": "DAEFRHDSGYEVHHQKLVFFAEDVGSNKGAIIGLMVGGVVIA", "assay": "Congo red birefringence of pre-formed Aβ42 fibrils with the tested molecules", "settings": "5-fold excess of compound", "description": "For efficient treatment of proteinopathies it may be advantageous to disassemble amyloid aggregates/fibrils which are usually already present at the time of diagnosis[75]–[77]. Therefore, the ability of the hybrid molecules to disrupt pre-formed fibrils of Aβ42 and hIAPP was examined. […] According to the ThT kinetic results, this time was sufficient to complete fibril formation (Fig. 2a, d). Then, various doses of the hybrid molecules were added to the pre-formed fibrils and the mixtures were incubated for additional 10 h. The process of disaggregation was monitored by ThT-binding assay, CD spectroscopy, TEM and Congo red staining (Fig. 5)."}}}
{"smiles": "NC(Cc1c[nH]c2ccccc12)C(=O)NC(Cc1c[nH]c2ccccc12)C(=O)O", "note": "(stereo not drawn) [WW]", "values": [{"measurement": "%Viability", "setting": "[1]; Aβ42 […] µM : compound 1:1", "result": 54.466, "unit": "%"}, {"measurement": "%Viability", "setting": "[1]; Aβ42 […] µM : compound 1:5", "result": 57.303, "unit": "%"}, {"measurement": "%Viability", "setting": "[1]; Aβ42 […] µM : compound 1:10", "result": 57.999, "unit": "%"}, {"measurement": "%Viability", "setting": "[1]; Aβ42 […] µM : compound 1:20", "result": 59.030, "unit": "%"}, {"measurement": "%Viability", "setting": "[1]; Aβ42 […] µM : compound 5:1", "result": 52.403, "unit": "%"}, {"measurement": "%Viability", "setting": "[1]; Aβ42 […] µM : compound 10:1", "result": 48.896, "unit": "%"}, {"measurement": "%Viability", "setting": "[1]; Aβ42 […] µM : compound 20:1", "result": 51.423, "unit": "%"}, {"measurement": "%Viability", "setting": "[1]; Aβ42 […] µM : compound 50:1", "result": 50.031, "unit": "%"}, {"measurement": "EC50", "setting": "[1]; Homo sapiens, read-out: Aβ42 EC50", "result": 13, "unit": "µM"}, {"measurement": "viability at 24 h, 0.2 µM", "setting": "[2]; 0.2µM", "result": 93.6, "unit": "%"}, {"measurement": "viability at 24 h, 1 µM", "setting": "[2]; 1 µM", "result": 98.4, "unit": "%"}, {"measurement": "viability at 24 h, 10 µM", "setting": "[2]; 10 µM", "result": 94.3, "unit": "%"}, {"measurement": "viability at 24 h, 50 µM", "setting": "[2]; 50 µM", "result": 84.5, "unit": "%"}, {"measurement": "viability at 24 h, 250 µM", "setting": "[2]; 250 µM", "result": 83.7, "unit": "%"}, {"measurement": "viability at 24 h, 250 µM", "setting": "[2]; HEK-293, 250 µM, 24 h", "result": "~83", "unit": "%"}, {"measurement": "increase of ThT signal of pre-formed hIAPP fibrils", "setting": "[3]; compound added to pre-formed fibrils", "result": 20, "unit": "%"}, {"measurement": "% amyloid of hIAPP in absence or presence of inhibitors", "setting": "[3]; molar ratio hIAPP:tested molecule 1:1", "result": 112.662, "unit": "%"}, {"measurement": "% amyloid of hIAPP in absence or presence of inhibitors", "setting": "[3]; molar ratio hIAPP:tested molecule 1:5", "result": 117.610, "unit": "%"}, {"measurement": "% amyloid of hIAPP in absence or presence of inhibitors", "setting": "[3]; molar ratio hIAPP:tested molecule 5:1", "result": 104.704, "unit": "%"}, {"measurement": "Normalized ThT fluorescence kinetics", "setting": "[3]; time 10.25 h", "result": 100.289}, {"measurement": "Normalized ThT fluorescence kinetics", "setting": "[3]; time 10.5 h", "result": 101.480}, {"measurement": "Normalized ThT fluorescence kinetics", "setting": "[3]; time 10.75 h", "result": 103.392}, {"measurement": "Normalized ThT fluorescence kinetics", "setting": "[3]; time 11 h", "result": 104.551}, {"measurement": "Normalized ThT fluorescence kinetics", "setting": "[3]; time 11.25 h", "result": 105.696}, {"measurement": "Normalized ThT fluorescence kinetics", "setting": "[3]; time 11.5 h", "result": 107.934}, {"measurement": "Normalized ThT fluorescence kinetics", "setting": "[3]; time 11.75 h", "result": 110.096}, {"measurement": "Normalized ThT fluorescence kinetics", "setting": "[3]; time 12 h", "result": 110.792}, {"measurement": "Normalized ThT fluorescence kinetics", "setting": "[3]; time 12.25 h", "result": 111.709}, {"measurement": "Normalized ThT fluorescence kinetics", "setting": "[3]; time 12.5 h", "result": 113.122}, {"measurement": "Normalized ThT fluorescence kinetics", "setting": "[3]; time 12.75 h", "result": 114.844}, {"measurement": "Normalized ThT fluorescence kinetics", "setting": "[3]; time 13 h", "result": 115.638}, {"measurement": "Normalized ThT fluorescence kinetics", "setting": "[3]; time 13.25 h", "result": 116.172}, {"measurement": "Normalized ThT fluorescence kinetics", "setting": "[3]; time 13.5 h", "result": 117.523}, {"measurement": "Normalized ThT fluorescence kinetics", "setting": "[3]; time 13.75 h", "result": 117.888}, {"measurement": "Normalized ThT fluorescence kinetics", "setting": "[3]; time 14 h", "result": 118.165}, {"measurement": "Normalized ThT fluorescence kinetics", "setting": "[3]; time 14.25 h", "result": 118.126}, {"measurement": "Normalized ThT fluorescence kinetics", "setting": "[3]; time 14.5 h", "result": 117.561}, {"measurement": "Normalized ThT fluorescence kinetics", "setting": "[3]; time 14.75 h", "result": 117.932}, {"measurement": "Normalized ThT fluorescence kinetics", "setting": "[3]; time 15 h", "result": 118.466}, {"measurement": "Normalized ThT fluorescence kinetics", "setting": "[3]; time 15.25 h", "result": 118.713}, {"measurement": "Normalized ThT fluorescence kinetics", "setting": "[3]; time 15.5 h", "result": 118.486}, {"measurement": "Normalized ThT fluorescence kinetics", "setting": "[3]; time 15.75 h", "result": 118.695}, {"measurement": "Normalized ThT fluorescence kinetics", "setting": "[3]; time 16 h", "result": 118.857}, {"measurement": "Normalized ThT fluorescence kinetics", "setting": "[3]; time 16.25 h", "result": 118.835}, {"measurement": "Normalized ThT fluorescence kinetics", "setting": "[3]; time 16.5 h", "result": 118.502}, {"measurement": "Normalized ThT fluorescence kinetics", "setting": "[3]; time 16.75 h", "result": 118.398}, {"measurement": "Normalized ThT fluorescence kinetics", "setting": "[3]; time 17 h", "result": 118.694}, {"measurement": "Normalized ThT fluorescence kinetics", "setting": "[3]; time 17.25 h", "result": 118.398}, {"measurement": "Normalized ThT fluorescence kinetics", "setting": "[3]; time 17.5 h", "result": 118.456}, {"measurement": "Normalized ThT fluorescence kinetics", "setting": "[3]; time 17.75 h", "result": 118.427}, {"measurement": "Normalized ThT fluorescence kinetics", "setting": "[3]; time 18 h", "result": 117.817}, {"measurement": "Normalized ThT fluorescence kinetics", "setting": "[3]; time 18.25 h", "result": 117.835}, {"measurement": "Normalized ThT fluorescence kinetics", "setting": "[3]; time 18.5 h", "result": 117.859}, {"measurement": "Normalized ThT fluorescence kinetics", "setting": "[3]; time 18.75 h", "result": 117.995}, {"measurement": "Normalized ThT fluorescence kinetics", "setting": "[3]; time 19 h", "result": 117.576}, {"measurement": "Normalized ThT fluorescence kinetics", "setting": "[3]; time 19.25 h", "result": 117.741}, {"measurement": "Normalized ThT fluorescence kinetics", "setting": "[3]; time 19.5 h", "result": 118.044}, {"measurement": "Normalized ThT fluorescence kinetics", "setting": "[3]; time 19.75 h", "result": 117.625}, {"measurement": "Normalized ThT fluorescence kinetics", "setting": "[3]; time 20 h", "result": 117.610}, {"measurement": "Congo red birefringence of pre-formed Aβ42 fibrils, in words", "setting": "[4]", "result": "faint birefringence"}]}
